Measurements as given in patent EP4744682A1, “NOVEL CERIUM OXIDE NANOCOMPOSITE WITH ENHANCED BIOSTABILITY AND USE THEREOF” (Cenyx Biotech Inc., priority 2023, dated 2025).

Test system: Hepa-1C1C7 hepatocyte cells
Test: Survival of pyrogallol-treated hepatocytes, NRU assay
Format: cell-based
Conditions: 500µM pyrogallol alone; 3 hours; compared to pyrogallol-untreated control
Experimental: Inflammatory liver disease is a condition where the liver cannot perform its normal functions due to liver damage, metabolic disorders, and accumulation of toxic substances. The present inventors sought to verify the therapeutic effect of the cerium oxide nanocomplex of the present invention on inflammatory liver disease. To induce the disease, Hepa-1C1C7 hepatocyte cells were treated with 500µM pyrogallol, a cytotoxic substance, to induce acute inflammatory liver disease. Simultaneously, the cells were treated with the cerium oxide nanocomplex of the present invention at concentrations ranging from 0.01 to 5µM. Three hours after treatment, the survival rate of Hepa-lclc7 cells was measured using the NRU assay, a biochemical analysis method that measures cell survival by allowing the neutral red dye to be absorbed by living cells. […] When treated with the cerium oxide nanocomplex of the present invention, survival rates of 74.55% at a minimum concentration of 0.01 µM and approximately 93.19% at a maximum concentration of 5µM were observed. This represents an increase in survival rate of at least 47.81% to a maximum of 84.78% compared to cells treated with pyrogallol alone (FIG. 13).

Oc1cccc(O)c1O [pyrogallol]
survival rate of cells: approximately 50.43%
